{"source": "patent US8618169B2", "about": "“Derivatives of N-phenylanthranilic acid and 2-benzimidazolone as potassium channel and/or neuron activity modulators” (Ramot at Tel-Aviv University Ltd., priority 2002, dated 2013)", "format_in_all_cases": "cell-based", "key": {"KCNQ2/Q3": {"molecular_target": "KCNQ2/Q3 (Homo sapiens, UniProt O43525+O43526)", "assay": "Opener potency on KCNQ2/Q3 by leftward shift of half-activation potential (ΔV50) versus concentration, Hill fit", "design": "expressed in transfected cells", "details": "compound alone"}, "homomeric KCNQ3": {"molecular_target": "T1, homomeric KCNQ3 (Homo sapiens, UniProt O43525)", "T1 construct": "expressed in transfected cells; host or cells: CHO cells", "assay": "Homomeric KCNQ3 channels expressed in CHO cells, patch-clamp", "details": "50 μM"}, "F-11 neuronal cells": {"test_system": "F-11 neuronal cells", "assay": "Spiking activity and membrane potential of F-11 neuronal cells, current-clamp", "details": "10 μM", "experimental": "F-11 neuronal cells were similarly cultured in F-12 Ham media containing 2 mM 1-glutamine supplemented with 10% fetal bovine serum, HAT supplement and antibiotics.\nFor current measurements in CHO cells, recordings were performed 40 hours following transfection, using the whole-cell configuration of the patch-clamp technique [Hamill et al., Nature 294: 462-464 (1981)]. Signals were amplified using an Axopatch 200B patch-clamp amplifier (Axon Instruments, Foster City, Calif., USA), sampled at 2 kHz and filtered at 800 Hz via a 4-pole Bessel low pass filter. Data were acquired using pClamp 8.1 software (Axon Instruments, Foster City, Calif., USA) and an Elonex Pentium III computer in conjunction with a DigiData 1322A interface (Axon Instruments, Foster City, Calif., USA). The patch pipettes were pulled from borosilicate glass (Warner Instrument. Corp., Hamden, Conn., USA) with a resistance of 2-5 MΩ and were filled with (in mM): 130 KCl, 1 MgCl2, 5 K2ATP, 5 EGTA, 10 HEPES, adjusted with KOH at pH 7.4 (290 mOsm). The external solution contained (in [mM]): 140 NaCl, 4 KCl, 1.8 CaCl2, 1.2 MgCl2, 11 glucose, 5.5 HEPES, adjusted with NaOH at pH 7.4 (310 mOsm). Series resistances (3-13 MΩ) were compensated (75-90%) and periodically monitored. For current-clamp measurements of rat cortical neurons, recordings were performed 10-14 days after plating, while rat DRG neurons recordings were performed 3 days after plating. The patch pipettes were filled with (in [mM]): 135 KCl, 1 K2ATP, 1 MgATP, 2 EGTA, 1.1 CaCl2, 5 glucose, 10 HEPES, adjusted with KOH at pH 7.4 (315 mOsm). The external solution contained (in [mM]): 140 NaCl, 4 KCl, 2 CaCl2, 2 MgCl2, 5 glucose, 10 HEPES, adjusted with NaOH at pH 7.4 (325 mOsm). For evoking the neuronal action potentials, 50-300 pA currents were injected into the cells for 800 ms (square pulse). Recordings were sampled at 5 kHz and filtered at 2 KHz via a 4-pole Bessel low pass filter. […]"}, "CA1 pyramidal neurons": {"test_system": "CA1 pyramidal neurons", "assay": "Bursting and spike ADP of CA1 pyramidal neurons in rat hippocampal slices, current-clamp", "experimental": "Using selective blockers and openers, it was recently shown that M-channels critically modulate the firing pattern of pyramidal hippocampal neurons by controlling the strength, duration and escalation into bursts of spike after depolarization (Yue and Yaari J. Neurosci., 24(19):4614-24, 2004).\nTo evaluate the effect of Compound 6 on the spike ADP, a brief depolarizing current pulse was injected to the neurons to elicit a solitary spike."}}, "data": [{"smiles": "Cc1ccc(Cl)c(Nc2ccccc2C(=O)O)c1Cl", "note": "[Compound 1, Meclofenamic acid]", "values": [{"measurement": "Hill coefficient ηH", "setting": "KCNQ2/Q3; Hill fit", "result": "2.1±0.5"}, {"measurement": "EC50", "setting": "KCNQ2/Q3; Hill fit, read-out: EC50 of leftward shift of the half-activation potential (ΔV50)", "result": "25.7 ± 1.1", "unit": "µM"}, {"measurement": "maximal left-shift of the half-activation potential (ΔV50)", "setting": "KCNQ2/Q3", "result": "−20±3", "unit": "mV"}, {"measurement": "leftward shift of the activation curve of KCNQ3 channels", "setting": "homomeric KCNQ3; CHO cells", "result": "−15", "unit": "mV"}, {"measurement": "increase of KCNQ3 current amplitude", "setting": "homomeric KCNQ3; stepped from −85 mV to −40 mV", "result": "120±4", "unit": "%"}, {"measurement": "τdeact of KCNQ3 with compound", "setting": "homomeric KCNQ3; control 319.6±40.8 msec", "result": "317.2 ± 30.2", "unit": "ms"}, {"measurement": "V50 of KCNQ3 activation with compound", "setting": "homomeric KCNQ3; control −39.0±3.5 mV", "result": "−54.0±2.0", "unit": "mV"}]}, {"smiles": "O=C(Cc1ccccc1Nc1c(Cl)cccc1Cl)NCCOCCO", "note": "[Compound 6]", "values": [{"measurement": "effect on spikes generated in F-11 cells", "setting": "F-11 neuronal cells", "result": "completely and reversibly blocks"}, {"measurement": "hyperpolarization of the membrane potential", "setting": "F-11 neuronal cells", "result": "9±3", "unit": "mV"}, {"measurement": "membrane potential of the F-11 neuronal cell with compound", "setting": "F-11 neuronal cells; FIG. 26, from −59 mV", "result": "−67", "unit": "mV"}, {"measurement": "effect on burst spiking", "setting": "CA1 pyramidal neurons; 25 μM, long suprathreshold depolarizing current pulses", "result": "suppression of the burst"}, {"measurement": "ADP size with compound", "setting": "CA1 pyramidal neurons; solitary spike, control 193.8±49.7 mV msec", "result": "117.1±40.6", "unit": "mV msec"}]}]}
